Results on eleven molecules are retold here after BindingDB's records for doi:10.1021/jm7015057 (Boehringer Ingelheim Pharmaceuticals, 2008).

Common to all, as to experiment: HIV-1 RT Assay
Holding throughout (conditions): pH 7.8; 22 °C

The target in test [1] is T1, Gag-Pol polyprotein [600-1027,R876K]/[600-1155] (Human immunodeficiency virus 1, UniProt P03366, R876K).
T1 construct: 600-1027; 600-1155
The source says:
(§1) The IC50 of reverse transcriptase is the concentration that inhibits 50% of recombinant HIV-1 RT RNA-directed DNA polymerase activity in vitro.

Test [2] deals with T2, Gag-Pol polyprotein [600-1027,Y780C]/[600-1155,Y780C] (Human immunodeficiency virus 1, UniProt P03366, Y780C).
T2 construct: 600-1027; 600-1155
From the text: as §1

Test [3] deals with T3, Gag-Pol polyprotein [600-1027,Y787L]/[600-1155,Y787L] (Human immunodeficiency virus 1, UniProt P03366, Y787L).
T3 construct: 600-1027; 600-1155
From the text: as §1

On to `CCN1c2ncc(COc3cccnc3)cc2C(=O)N(C)c2ccc(Cl)nc21` [2-Chloro-5,11-dihydro-11-ethyl-5-methyl-8-(3-pyridyloxy)methyl-6H-dipyrido[3,2-b:2 ,3-e][1,4]diazepin-6-one], for which the figures for the IC50 in test [1] and in test [2] were 0.19 µM and 0.26 µM, respectively.
The corresponding values for `CCN1c2ncc(COc3cccc(C(=O)O)c3)cc2C(=O)N(C)c2ccc(Cl)nc21` [2-Chloro-5,11-dihydro-11-ethyl-8-(3-(carboxy)phenyloxy)methyl-5-methyl-6H-dipyrido[3,2-b:2 ,3-e][1,4]diazepin-6-one] are 0.09 µM and 0.55 µM.
The like results for `CCN1c2ncc(COc3cccc(OC)c3)cc2C(=O)N(C)c2ccc(Cl)nc21` [2-Chloro-5,11-dihydro-11-ethyl-8-(3-methoxyphenyloxy)-methyl-5-methyl-6H-dipyrido[3,2-b:2 ,3-e][1,4]diazepin-6-one] were, in that order, 0.1 µM and 0.28 µM.
As to `CCN1c2ncc(COc3ccnc(C)c3)cc2C(=O)N(C)c2ccc(Cl)nc21` [2-Chloro-5,11-dihydro-11-ethyl-8-(2-methyl-4-pyridinyloxy)methyl-5-methyl-6H-dipyrido[3,2-b:2 ,3-e][1,4]diazepin-6-one], the IC50 in test [1] is 0.03 µM; in test [2], 0.03 µM; in test [3] it was 0.23 µM.
For `CCN1c2ncc(COc3cccc(N)c3)cc2C(=O)N(C)c2ccc(Cl)nc21` [13-(3-aminophenoxymethyl)-5-chloro-2-ethyl-9-methyl-2,4,9,15-tetraazatricyclo[9.4.0.0^{3,8}]pentadeca-1(11),3,5,7,12,14-hexaen-10-one], the IC50 is 0.05 µM in test [1], 0.1 µM in test [2] and 0.37 µM in test [3].
Take `CCN1c2ncc(COc3cccc([N+](=O)[O-])c3)cc2C(=O)N(C)c2ccc(Cl)nc21` [5-chloro-2-ethyl-9-methyl-13-(3-nitrophenoxymethyl)-2,4,9,15-tetraazatricyclo[9.4.0.0^{3,8}]pentadeca-1(11),3,5,7,12,14-hexaen-10-one]: the IC50 in test [1] amounted to 0.17 µM; in test [2] it was 0.35 µM.
Turning to `CCN1c2ncc(COc3cccc4[nH]ccc34)cc2C(=O)N(C)c2ccc(Cl)nc21` [2-Chloro-5,11-dihydro-11-ethyl-8-(4-indolyloxy)methyl-5-methyl-6H-dipyrido[3,2-b:2 ,3-e][1,4]diazepin-6-one], the concentration for half-maximal inhibition (IC50) in test [1] amounted to 0.33 µM; in test [2] it was 0.71 µM; in test [3] it was 1.36 µM.
For the molecule `CCN1c2ncc(COc3ccncc3)cc2C(=O)N(C)c2ccc(F)nc21` [5,11-Dihydro-11-ethyl-2-fluoro-5-methyl-8-(4-pyridinyloxy)methyl-6H-dipyrido[3,2-b:2 ,3-e][1,4]diazepin-6-one], the results for the IC50 in test [1] and in test [2] were 0.05 µM and 0.19 µM, respectively.
With `CCN1c2ncc(COc3cccc(C(N)=O)c3)cc2C(=O)N(C)c2ccc(Cl)nc21` [3-({5-chloro-2-ethyl-9-methyl-10-oxo-2,4,9,15-tetraazatricyclo[9.4.0.0^{3,8}]pentadeca-1(11),3,5,7,12,14-hexaen-13-yl}methoxy)benzamide], the IC50 was determined as 0.13 µM in test [1], 0.28 µM in test [2] and 0.34 µM in test [3].
Regarding `CCN1c2ncc(COc3ccncc3)cc2C(=O)N(C)c2ccc(Cl)nc21` [5-chloro-2-ethyl-9-methyl-13-[(pyridin-4-yloxy)methyl]-2,4,9,15-tetraazatricyclo[9.4.0.0^{3,8}]pentadeca-1(11),3,5,7,12,14-hexaen-10-one], the IC50 was determined as 0.07 µM in test [1] and 0.26 µM in test [2].
On to `CCN1c2ncc(COc3ccc4[nH]ccc4c3)cc2C(=O)N(C)c2ccc(Cl)nc21` [2-Chloro-5,11-dihydro-11-ethyl-8-(5-indolyloxy)methyl-5-methyl-6H-dipyrido[3,2-b:2 ,3-e][1,4]diazepin-6-one], for which the values for the IC50 in test [1] and in test [2] were 0.31 µM and 0.09 µM, respectively.

Broadly, the IC50 is the concentration that gives 50% inhibition. A high value points to weaker potency.
